# Results from US8921416B2, “Dronedarone solid dispersion and preparation method thereof” (Jiangsu Hengrui Medicine Co., Ltd., priority 2010, dated 2014).
# Where a name gives a salt, the structure may show the parent alone.
# Tests used:
# [1] = 24 h solubility of solid dispersions in PBS pH6.8; type: physicochemical; conditions: 37 °C, pH 6.8, aqueous buffer, thermodynamic from solid
# Protocol: The weight ratio of the drug to the carrier was 1:5. Different hydrophilic polymeric carrier materials were selected from the group consisting of polyethylene glycol 6000, poloxamer 188, PVP K30, Klucel® EF, Plasdone® S-630, mannitol and combinations thereof respectively. 12 parts by weight of dichloromathane were added into the drug and carrier mixture, and was dissolved by stirring. Then the solution was transferred to a vacuum oven, maintained at 55° C., dried under reduced pressure for 48 h. Then the dry mass was crushed with a 100 mesh sieve, thereby the solid dispersion of dronedarone was obtained. The solubilities of the solid dispersion in the phosphate buffered saline (PBS) at pH6.8 were measured as follows.
# 24 h Solubility Determination: aliquots of the prepared solid dispersion were added into a 100 ml conical flask respectively. Then 50 ml PBS pH6.8 were added. The conical flask was sealed and placed in a thermostatic waterbath shaker and shaked at a set temperature of 37° C. for 24 h. After 24 hours, 10 mL of the solution were taken and filtrated. The initial 4 mL of the filtrate were abandoned and the subsequent filtrate were taken and diluted with PBS pH6.8 to a corresponding folds. The UV absorbance at 290 nm was measured with a UV spectrophotometer. Then the drug solubilities were calculated.
# [2] = pH=7; cited from earlier work
Compound,solubility at 24 h [1] [µg/mL],solubility in an aqueous solution [2]
CCCCc1oc2ccc(NS(C)(=O)=O)cc2c1C(=O)c1ccc(OCCCN(CCCC)CCCC)cc1 [Dronedarone hydrochloride],12,
"CCCCc1oc2ccc(NS(C)(=O)=O)cc2c1C(=O)c1ccc(OCCCN(CCCC)CCCC)cc1 [dronedarone, N-(2-Butyl-3-(4-(3-(dibutylamino)propoxy)benzoyl)-5-benzofuranyl)methanesulfonamide]",,about 10 μg/ml
